Common to all, as to assay: Kinase selectivity, scanMAX Kinase assay panel (DiscoverX), % control at 1 uM
Common to all, as to format: binding

The target of assay [1] is T1, scanMAX Kinase assay panel (Homo sapiens, UniProt P15735).
T1 construct: purchased DiscoverX
T1 sequence (P15735 1-406): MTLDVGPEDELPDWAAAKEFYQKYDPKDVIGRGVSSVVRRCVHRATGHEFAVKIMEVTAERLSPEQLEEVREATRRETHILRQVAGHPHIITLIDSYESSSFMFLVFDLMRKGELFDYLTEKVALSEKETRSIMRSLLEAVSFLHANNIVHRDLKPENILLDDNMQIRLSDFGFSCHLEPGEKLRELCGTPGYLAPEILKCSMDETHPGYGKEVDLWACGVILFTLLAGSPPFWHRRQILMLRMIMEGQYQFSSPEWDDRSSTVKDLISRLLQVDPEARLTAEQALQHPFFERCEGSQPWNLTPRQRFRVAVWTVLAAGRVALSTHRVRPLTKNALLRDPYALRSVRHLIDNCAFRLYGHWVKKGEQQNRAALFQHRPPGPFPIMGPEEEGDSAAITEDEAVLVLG
The note with it: PHKG2; 1 uM; read-out: Percent Control (%). The method in brief:
(§1)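 A single concentration of 1 uM, in DMSO, is applied across the kinase panel. Activity against an individual enzyme is assigned where % control is less than 35.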

Assay [2] has as its target T2, scanMAX Kinase assay panel (Homo sapiens, UniProt P23443).
T2 construct: purchased DiscoverX
The note with it: S6K1; 1 uM; read-out: Percent Control (%). An outline of the steps: as §1

The target of assay [3] is T3, scanMAX Kinase assay panel (Homo sapiens, UniProt P53350).
T3 construct: purchased DiscoverX
T3 sequence (P53350 whole entry): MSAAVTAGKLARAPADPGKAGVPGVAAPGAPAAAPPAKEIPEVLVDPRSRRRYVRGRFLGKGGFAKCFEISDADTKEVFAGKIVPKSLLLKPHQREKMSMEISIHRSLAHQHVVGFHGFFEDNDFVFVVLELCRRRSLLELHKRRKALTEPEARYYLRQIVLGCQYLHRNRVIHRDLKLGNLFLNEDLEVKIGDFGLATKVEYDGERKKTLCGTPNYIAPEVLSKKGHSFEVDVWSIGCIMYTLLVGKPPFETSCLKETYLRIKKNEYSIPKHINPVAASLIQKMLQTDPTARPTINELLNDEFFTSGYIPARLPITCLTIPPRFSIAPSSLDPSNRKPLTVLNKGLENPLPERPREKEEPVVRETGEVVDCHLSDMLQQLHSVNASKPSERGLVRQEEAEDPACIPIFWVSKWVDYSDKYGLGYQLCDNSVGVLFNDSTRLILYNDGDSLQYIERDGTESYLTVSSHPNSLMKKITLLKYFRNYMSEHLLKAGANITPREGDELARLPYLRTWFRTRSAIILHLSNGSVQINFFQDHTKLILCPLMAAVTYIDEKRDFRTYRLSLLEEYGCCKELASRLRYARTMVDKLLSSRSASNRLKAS
The note with it: PLK1; 1 uM; read-out: Percent Control (%). An outline of the steps: as §1

The target in assay [4] is T4, scanMAX Kinase assay panel (Homo sapiens, UniProt Q6XUX3).
T4 construct: purchased DiscoverX
T4 sequence (Q6XUX3 1-929): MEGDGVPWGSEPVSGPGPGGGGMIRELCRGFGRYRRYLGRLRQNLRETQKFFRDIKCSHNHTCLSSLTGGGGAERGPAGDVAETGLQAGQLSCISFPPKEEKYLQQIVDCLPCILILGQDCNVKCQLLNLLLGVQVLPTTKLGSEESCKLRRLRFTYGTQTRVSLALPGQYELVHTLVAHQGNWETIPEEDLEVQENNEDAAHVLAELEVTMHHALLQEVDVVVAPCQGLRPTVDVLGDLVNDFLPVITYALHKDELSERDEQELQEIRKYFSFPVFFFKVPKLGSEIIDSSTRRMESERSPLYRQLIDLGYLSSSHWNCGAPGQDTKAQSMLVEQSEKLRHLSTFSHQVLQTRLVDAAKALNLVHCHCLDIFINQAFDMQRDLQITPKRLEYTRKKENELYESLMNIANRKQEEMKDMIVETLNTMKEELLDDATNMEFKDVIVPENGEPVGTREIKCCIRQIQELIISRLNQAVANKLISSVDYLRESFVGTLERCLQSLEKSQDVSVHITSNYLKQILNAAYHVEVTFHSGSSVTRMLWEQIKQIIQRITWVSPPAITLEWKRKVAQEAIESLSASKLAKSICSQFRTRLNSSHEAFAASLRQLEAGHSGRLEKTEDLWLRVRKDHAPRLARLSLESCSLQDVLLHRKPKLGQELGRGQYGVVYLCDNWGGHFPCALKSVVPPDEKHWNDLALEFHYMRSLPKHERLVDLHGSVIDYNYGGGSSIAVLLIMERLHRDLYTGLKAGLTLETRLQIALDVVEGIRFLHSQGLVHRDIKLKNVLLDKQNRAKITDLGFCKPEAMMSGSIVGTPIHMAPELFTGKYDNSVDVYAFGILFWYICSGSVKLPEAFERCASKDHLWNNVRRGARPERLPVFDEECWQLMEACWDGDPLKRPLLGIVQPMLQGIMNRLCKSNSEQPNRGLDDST
The note with it: RIPK5; 1 uM; read-out: Percent Control (%). An outline of the steps: as §1

The target of assay [5] is T5, scanMAX Kinase assay panel (Homo sapiens, UniProt Q8TDR2).
T5 construct: purchased DiscoverX
T5 sequence (Q8TDR2 whole entry): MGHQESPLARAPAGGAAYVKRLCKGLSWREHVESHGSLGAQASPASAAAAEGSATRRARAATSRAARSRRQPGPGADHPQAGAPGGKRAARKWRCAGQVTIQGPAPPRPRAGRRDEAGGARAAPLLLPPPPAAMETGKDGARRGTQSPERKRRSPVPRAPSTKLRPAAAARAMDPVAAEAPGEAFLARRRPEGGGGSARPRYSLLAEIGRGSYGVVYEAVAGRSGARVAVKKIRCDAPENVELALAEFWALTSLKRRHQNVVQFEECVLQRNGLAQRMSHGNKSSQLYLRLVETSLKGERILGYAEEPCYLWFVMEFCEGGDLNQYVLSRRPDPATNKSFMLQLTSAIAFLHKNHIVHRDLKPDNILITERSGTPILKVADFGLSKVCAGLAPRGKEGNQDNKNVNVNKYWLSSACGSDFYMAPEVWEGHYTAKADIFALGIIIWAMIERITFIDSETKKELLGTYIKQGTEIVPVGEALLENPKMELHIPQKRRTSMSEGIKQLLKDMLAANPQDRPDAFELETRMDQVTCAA
The note with it: STK35; 1 uM; read-out: Percent Control (%). The method in brief: as §1

Assay [6] has as its target T6, scanMAX Kinase assay panel (Homo sapiens, UniProt Q9UQ88).
T6 construct: purchased DiscoverX
T6 sequence (Q9UQ88 1-783): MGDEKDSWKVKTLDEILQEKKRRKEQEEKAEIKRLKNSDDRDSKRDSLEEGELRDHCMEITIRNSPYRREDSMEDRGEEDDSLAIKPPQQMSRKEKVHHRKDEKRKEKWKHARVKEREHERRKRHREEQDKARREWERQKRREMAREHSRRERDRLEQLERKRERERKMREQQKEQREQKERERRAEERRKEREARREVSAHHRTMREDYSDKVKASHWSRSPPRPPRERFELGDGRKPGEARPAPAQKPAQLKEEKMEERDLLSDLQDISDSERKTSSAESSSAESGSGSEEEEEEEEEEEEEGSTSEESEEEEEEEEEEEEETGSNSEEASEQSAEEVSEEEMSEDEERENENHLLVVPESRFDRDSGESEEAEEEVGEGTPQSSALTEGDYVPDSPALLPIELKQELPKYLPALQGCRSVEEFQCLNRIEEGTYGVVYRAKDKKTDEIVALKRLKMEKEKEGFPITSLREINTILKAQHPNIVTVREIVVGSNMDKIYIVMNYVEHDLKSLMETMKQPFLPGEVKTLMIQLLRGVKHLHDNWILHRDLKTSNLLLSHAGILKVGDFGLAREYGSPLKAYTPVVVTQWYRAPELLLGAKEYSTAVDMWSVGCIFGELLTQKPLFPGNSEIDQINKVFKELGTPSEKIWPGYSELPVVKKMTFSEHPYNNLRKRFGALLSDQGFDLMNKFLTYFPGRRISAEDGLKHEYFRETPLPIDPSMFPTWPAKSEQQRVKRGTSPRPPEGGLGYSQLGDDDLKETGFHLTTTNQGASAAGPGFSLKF
The note with it: CDC2L2; 1 uM; read-out: Percent Control (%). An outline of the steps: as §1

Assay [7] concerns the target T7, scanMAX Kinase assay panel (Homo sapiens, UniProt Q9Y4K4).
T7 construct: purchased DiscoverX
The note with it: MAP4K5; 1 uM; read-out: Percent Control (%). An outline of the steps:
as §1

T2 sequence (P23443 whole entry): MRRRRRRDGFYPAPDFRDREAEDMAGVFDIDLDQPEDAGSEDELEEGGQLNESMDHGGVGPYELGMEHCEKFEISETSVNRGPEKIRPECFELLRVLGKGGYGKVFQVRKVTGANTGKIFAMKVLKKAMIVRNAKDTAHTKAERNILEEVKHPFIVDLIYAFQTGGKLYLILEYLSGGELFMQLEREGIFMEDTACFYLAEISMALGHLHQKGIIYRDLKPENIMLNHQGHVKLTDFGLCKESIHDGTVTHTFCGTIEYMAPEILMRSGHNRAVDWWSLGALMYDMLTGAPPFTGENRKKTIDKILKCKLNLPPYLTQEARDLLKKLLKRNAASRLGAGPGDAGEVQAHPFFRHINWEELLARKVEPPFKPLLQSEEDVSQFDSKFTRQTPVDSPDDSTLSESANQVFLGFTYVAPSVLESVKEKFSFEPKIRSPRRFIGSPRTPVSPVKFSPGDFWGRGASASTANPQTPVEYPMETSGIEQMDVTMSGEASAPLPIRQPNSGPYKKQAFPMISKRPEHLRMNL
T7 sequence (Q9Y4K4 whole entry): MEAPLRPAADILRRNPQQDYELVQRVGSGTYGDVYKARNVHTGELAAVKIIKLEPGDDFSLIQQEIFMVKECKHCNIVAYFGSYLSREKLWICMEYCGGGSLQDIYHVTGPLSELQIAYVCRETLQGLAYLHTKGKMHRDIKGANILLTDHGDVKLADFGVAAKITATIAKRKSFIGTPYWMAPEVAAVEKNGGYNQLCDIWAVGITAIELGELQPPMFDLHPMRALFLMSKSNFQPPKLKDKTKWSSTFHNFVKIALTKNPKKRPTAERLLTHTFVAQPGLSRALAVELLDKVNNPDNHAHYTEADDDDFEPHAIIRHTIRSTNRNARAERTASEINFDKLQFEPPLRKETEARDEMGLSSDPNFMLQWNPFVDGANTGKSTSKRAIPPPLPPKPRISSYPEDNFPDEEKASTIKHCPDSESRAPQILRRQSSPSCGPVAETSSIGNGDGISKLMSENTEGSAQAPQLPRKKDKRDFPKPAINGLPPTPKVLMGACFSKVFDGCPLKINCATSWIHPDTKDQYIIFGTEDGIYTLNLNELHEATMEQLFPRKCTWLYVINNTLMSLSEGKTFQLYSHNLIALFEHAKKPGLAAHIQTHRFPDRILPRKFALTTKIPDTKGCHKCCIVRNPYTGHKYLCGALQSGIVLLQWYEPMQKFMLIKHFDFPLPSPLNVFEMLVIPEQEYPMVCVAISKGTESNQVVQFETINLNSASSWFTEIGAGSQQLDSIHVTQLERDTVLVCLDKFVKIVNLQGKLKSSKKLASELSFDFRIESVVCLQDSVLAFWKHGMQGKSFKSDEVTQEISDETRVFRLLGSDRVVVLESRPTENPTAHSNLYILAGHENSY

As to `Cc1ccc(C(=O)Nc2ccc(CN3CCN(C)CC3)c(C(F)(F)F)c2)cc1C#Cc1cnc2c(Nc3cnn(C)c3)cccn12` [Example 1, 4-methyl-3-((8-((1-methyl-1H-pyrazol-4-yl)amino)imidazo[1,2-a]pyridin-3-yl)ethynyl)-N-(4-((4-methylpiperazin-1-yl)methyl)-3-(trifluoromethyl)phenyl)benzamide], the remaining binding at 1 µM in assay [1] was 72%; in assay [2], 14%; in assay [3], 77%; in assay [4], 41%; in assay [5], 33%; in assay [6], 28%. Further, in assay [7], the remaining binding at 1 µM came out at 1%.
On to `Cc1cn(-c2cc(NC(=O)c3ccc(C)c(C#Cc4cnc5c(Nc6cnn(C)c6)cccn45)c3)cc(C(F)(F)F)c2)cn1` [Example 12, 4-methyl-N-(3-(4-methyl-1H-imidazol-1-yl)-5-(trifluoromethyl)phenyl)-3-((8-((1-methyl-1H-pyrazol-4-yl)amino)imidazo[1,2-a]pyridin-3-yl)ethynyl)benzamide], for which the remaining binding at 1 µM amounted to 89% in assay [1]; 100% in assay [2]; 100% in assay [3]; 100% in assay [4]; 58% in assay [5]; 72% in assay [6]. Besides, in assay [7], the remaining binding at 1 µM amounted to 12%.
As for `Cc1ccc(NC(=O)C2(C(=O)Nc3ccc(F)cc3)CC2)cc1C#Cc1cnc2c(Nc3cnn(C(C)C)c3)cccn12` [Example 78], the remaining binding at 1 µM amounted to 100% in assay [1]; 100% in assay [2]; 100% in assay [3]; 79% in assay [4]; 100% in assay [5]; 100% in assay [6]. Also, the remaining binding at 1 µM in assay [7] was 82%.

For the origin of these results see patent US10870647B2, “Imidazopyridine derivative, method for preparing same, and pharmaceutical composition containing same as active ingredient for preventing or treating cancer” (DAEGU-GYEONGBUK MEDICAL INNOVATION FOUNDATION, priority 2016, dated 2020).
